Here are results for two molecules from patent publication US20200369674A1, “ANTI-PAIN COMPOUND AND PREPARATION METHOD THEREOF” (LUNAN PHARMACEUTICAL GROUP CORPORATION, priority 2017, published 2020).

SMILES strings stand for the structures.

The test system of the experiment is ICR mice. The experiment can be described thus: Carrageenan-induced paw swelling in mice. Format: in vivo. The conditions noted are these: 1 mg/kg i.g.; for 0.5 h inhibition rate (%) / 0.5 h swelling degree (μL): 0.5 h after carrageenan injection; for 0.5 h swelling degree (μL) / 1 h swelling degree (μL) / 2 h swelling degree (μL): mean±SD; for 1 h inhibition rate (%) / 1 h swelling degree (μL): 1 h after carrageenan injection; for 2 h inhibition rate (%) / 2 h swelling degree (μL): 2 h after carrageenan injection. On the procedure:
ICR mice, body weight 18 g-22 g, half of them being male and the other half being female, provided by the Department of Laboratory Animals, Peking University. The animals were raised in a standard environment: temperature 23±1° C., relative humidity 55±5%, light-dark cycle 12 h/12 h, and fed with standard pellet feed.
The mouse was fixed in a special holder, and both hind feet were exposed. Before the test, a line was drawn at 0.5 cm below the ankle joint of mouse with a marker, and used as a mark for measuring plantar volume. 30 minutes before administration the volume of right hind foot was measured as basic threshold. The mice were randomly divided into 5 groups, 8 mice per group, half of them being male and the other half being female. Vehicle control group (double-distilled water, i.g.), dexamethasone control group (0.5 mg/kg, i.g.), compound DXL-A-22 group (1 mg/kg, i.g.), and DXL-A-24 group (1 mg/kg, i.g.) were set. All drugs were dissolved in double-distilled water before administration, and were administered at 0.1 mL/10 g. Immediately after intragastric administration, 20 μL of 5% carrageenan saline solution was injected subcutaneously in the right hind foot of the mice, and the plantar volumes were measured at time points of 0.5 h, 1 h and 2 h after injection. The difference between the plantar volume of right foot after injection of carrageenan and the plantar volume of right foot before injection was used as swelling degree index (i.e., swelling degree). The swelling degree was calculated according to formula (3). The intensity of anti-inflammatory effect was expressed as inhibition rate (%), and the inhibition rate (%) was calculated according to formula (4).
Swelling degree=plantar volume of right foot after injection−plantar volume of right foot before injection (3)
Inflammation inhibition rate (%)=(plantar swelling degree in vehicle control group−plantar swelling degree in drug administration group)/plantar swelling degree in vehicle control group×100% (4)

In the case of `Br.Brc1ccc(N2CC[N+]3(CCCC3)CC2)cc1` [DXL-A-22, 8-(4-bromophenyl)-5,8-diazaspiro[4.5]decan-5-ium bromide], the “0.5 h inhibition rate (%)” value is listed as 50.07%, the “0.5 h swelling degree (μL)” value is 42.63 ± 16.98**/ μL, the “1 h inhibition rate (%)” value was found to be 55.56% and the “1 h swelling degree (μL)” value is 38.50 ± 11.40**/ μL. The “2 h inhibition rate (%)” value came out at 65.36% and the “2 h swelling degree (μL)” value is 38.63 ± 11.67**/ μL.
As for `FC(F)(F)c1ccc(N2CC[N+]3(CCCC3)CC2)cc1.[Br-]` [DXL-A-24, 8-(4-(trifluoromethyl)phenyl)-5,8-diazaspiro[4.5]decan-5-ium bromide], the “0.5 h inhibition rate (%)” value amounted to 52.27%, the “0.5 h swelling degree (μL)” value was 40.75 ± 13.34**/ μL, the “1 h inhibition rate (%)” value came to 57.72% and the “1 h swelling degree (μL)” value was 36.63 ± 16.12**/ μL. Besides, the “2 h inhibition rate (%)” value came out at 67.49% and the “2 h swelling degree (μL)” value was 36.25 ± 9.60**/ μL.
